≈ marks a conversion by molar mass, not a printed value.
The compounds below were run on Helicobacter pylori standard strain ATCC 43526 (NCTC 11916) (assay: Antibacterial Test 1: MIC against Helicobacter pylori, agar plate dilution method (anaerobic MIC method)). Conditions: 72 h, Hp ATCC 43526, agar plate dilution, 37° C., 3 days.
Assay type: cell-based

`CSc1ccc2c(SCc3ccc(N(C)C)c(C)c3)ccnc2c1` [Compound 40, 4-(3-Methyl-4-dimethylaminobenzylthio)-7-methylthioquinoline] and `CSc1ccc2c(SCc3ccc(N(C)C)c(N(C)C)c3)ccnc2c1` [Compound 41, 4-[3,4-Bis(dimethylamino)benzylthio]-7-methylthioquinoline] are the same in MIC: 0.2 µg/mL (≈ 0.564 µM) for the first, 0.2 µg/mL (≈ 0.521 µM) for the second.

`COc1cc(C(=O)CSc2ccnc3ccccc23)cc(OC)c1OC` [Compound 17, 4-(2-(3,4,5-Trimethoxyphenyl)-2-oxoethylthio]quinoline] and `COc1ccc(C(=O)CSc2ccnc3ccccc23)c(OC)c1` [Compound 6, 4-[2-(2,4-Dimethoxyphenyl)-2-oxoethylthio]quinoline] are the same in MIC: 0.05 µg/mL (≈ 0.135 µM) for the first, 0.05 µg/mL (≈ 0.147 µM) for the second.

`CC(C)(C)OC(=O)N1CCN(c2ccc(C(=O)CSc3ccnc4ccc(F)cc34)cc2)CC1` [Compound 73, 4-[2-[4-(4-tert-Butoxycarbonyl-1-piperazinyl)phenyl]-2-oxoethylthio]-6-fluoroquinoline] and `CC(C)(C)OC(=O)N1CCCN(c2ccc(C(=O)CSc3ccnc4ccccc34)cc2)CC1` [Compound 76, 4-[2-[4-(4-tert-Butoxycarbonyl-1-homopiperazinyl)phenyl]-2-oxoethylthio]quinoline] are the same in MIC: 0.0062 µg/mL (≈ 0.0129 µM) for the first, 0.0062 µg/mL (≈ 0.013 µM) for the second.

Compared with `O=C(CSc1ccnc2ccccc12)c1ccc(-c2ccccc2)cc1` [Compound 4, 4-[2-(p-Biphenyl)-2-oxoethylthio]quinoline], `O=C(CSc1ccnc2ccccc12)c1ccc(NCc2ccccc2)c(Br)c1` [Compound 20, 4-[2-(4-Benzylamino-3-bromophenyl)-2-oxoethylthio]-quinoline] is 4-fold lower in MIC: 0.1 µg/mL (≈ 0.281 µM) for the first, 0.025 µg/mL (≈ 0.0539 µM) for the second.

First: O=C(CSc1ccnc2ccccc12)c1ccc(N2CCN(c3ncccn3)CC2)cc1 [Compound 68, 4-[2-[4-[4-(2-Pyrimidyl)-1-piperazinyl]phenyl]-2-oxoethylthio]quinoline]
Second: O=C(CSc1ccnc2ccccc12)c1ccc(N2CCN(c3ccc(Br)cc3)CC2)cc1 [Compound 67, 4-[2-[4-[4-(4-Bromophenyl)-1-piperazinyl]phenyl]-2-oxoethylthio]quinoline]
The MIC of the first is 3.9-fold lower: 0.0016 µg/mL (≈ 0.00362 µM) for the first, 0.0062 µg/mL (≈ 0.012 µM) for the second.

Compared with `CSc1ccc2c(SCc3ccc(NCCC(C)CC(C)(C)C)cc3)ccnc2c1` (stereo not shown) [Compound 37, 4-[4-(3,5,5-Trimethylhexylamino)benzylthio]-7-methylthioquinoline], `CCNc1ccc(CSc2ccnc3cc(SC)ccc23)cc1` [Compound 36, 4-(4-Ethylaminobenzylthio)-7-methylthioquinoline] is 2-fold lower in MIC: 0.2 µg/mL (≈ 0.456 µM) for the first, 0.1 µg/mL (≈ 0.294 µM) for the second.

`CCOC(=O)N1CCN(c2ccc(C(=O)CSc3ccnc4ccccc34)cc2)CC1` [Compound 82, 4-[2-[4-(4-Ethoxycarbonyl-1-piperazinyl)phenyl]-2-oxoethylthio]quinoline] and `C=CCOC(=O)N1CCN(c2ccc(C(=O)CSc3ccnc4ccccc34)cc2)CC1` [Compound 83, 4-[2-[4-(4-Allyloxycarbonyl-1-piperazinyl)phenyl]-2-oxoethylthio]guinoline] are the same in MIC: 0.0008 µg/mL (≈ 0.00184 µM) for the first, 0.0008 µg/mL (≈ 0.00179 µM) for the second.

Going from `CC(C)CN1CCN(c2ccc(C(=O)CSc3ccnc4ccccc34)cc2)CC1` [Compound 29, 4-[2-[4-(4-Isobutyl-1-piperazinyl)phenyl]-2-oxoethylthio]quinoline] to `CC(C)CN1CC(=O)N(c2ccc(C(=O)CSc3ccnc4ccccc34)cc2)C1` [Compound 71, 4-[2-[4-(3-Isobutyl-5-oxo-1-imidazolidinyl)phenyl]-2-oxoethylthio]quinoline], the MIC rises from 0.0008 µg/mL (≈ 0.00191 µM) to 0.05 µg/mL (≈ 0.119 µM) (62-fold).

First: COc1ccc(Oc2ccc(C(=O)CSc3ccnc4ccccc34)cc2)cc1 [Compound 15, 4-[2-[4-(4-Methoxyphenoxy)phenyl]-2-oxoethylthio]-quinoline]
Second: COc1ccc(COc2ccc(C(=O)CSc3ccnc4ccccc34)cc2)cc1 [Compound 56, 4-[2-[4-(4-Methoxybenzyloxy)phenyl]-2-oxoethylthio]-quinoline]
The MIC of the first is 8-fold higher: 0.1 µg/mL (≈ 0.249 µM) for the first, 0.0125 µg/mL (≈ 0.0301 µM) for the second.

Compared with `CSc1ccc2c(SCc3ccc(N(CCO)CCOC(C)=O)cc3)ccnc2c1` [Compound 48, 4-[4-[N-(2-Acetoxyethyl)-2-hydroxyethylamino]benzylthio]-7-methylthioquinoline], `CSc1ccc2c(SCc3ccc(N(CCOC(C)=O)CCOC(C)=O)cc3)ccnc2c1` [Compound 47, 4-[4-[Bis(2-acetoxyethyl)amino]benzylthio]-7-methylthioquinoline] is 2-fold higher in MIC: 0.1 µg/mL (≈ 0.226 µM) for the first, 0.2 µg/mL (≈ 0.413 µM) for the second.

`CC(C)(C)C(=O)N1CC=C(c2ccc(C(=O)CSc3ccnc4ccccc34)cc2)CC1` [Compound 74, 4-[2-[4-(1-Pivaloyl-1,2,5,6-tetrahydropyrid-4-yl)phenyl]-2-oxoethylthio]quinoline] and `CC(C)(C)C(=O)N1CCC(c2ccc(C(=O)CSc3ccnc4ccccc34)cc2)CC1` [Compound 28, 4-[2-[4-(1-Pivaloyl-4-piperidinyl)phenyl]-2-oxoethylthio]-quinoline] are the same in MIC: 0.0008 µg/mL (≈ 0.0018 µM) for the first, 0.0008 µg/mL (≈ 0.00179 µM) for the second.

First: CC(C)(C)OC(=O)Nc1ccc(CCSc2ccnc3ccccc23)cc1 [Compound 24, 4-[2-(4-tert-Butoxycarbonylaminophenyl)ethylthio]-quinoline]
Second: CC(C)CN(C)CC(=O)Nc1ccc(CCSc2ccnc3ccccc23)cc1 [Compound 70, 4-[2-[4-[2-(N-Isobutyl-N-methylamino)acetylamino]-phenyl]ethylthio]quinoline]
The MIC of the first is 4-fold higher: 0.2 µg/mL (≈ 0.526 µM) for the first, 0.05 µg/mL (≈ 0.123 µM) for the second.

First: CCN(CC)C(=S)N1CCN(c2ccc(C(=O)CSc3ccnc4ccccc34)cc2)CC1 [Compound 54, 4-[2-[4-(4-Diethylaminothiocarbonyl-1-piperazinyl)-phenyl]-2-oxoethylthio]quinoline]
Second: CC(C)(C)C(=O)N1CCN(c2ccc(C(=O)CSc3ccnc4ccccc34)cc2)CC1 [Compound 52, 4-[2-[4-(4-Pivaloyl-1-piperazinyl)phenyl]-2-oxoethylthio]quinoline]
The MIC of the first is 2-fold higher: 0.0016 µg/mL (≈ 0.00334 µM) for the first, 0.0008 µg/mL (≈ 0.00179 µM) for the second.

`CSc1ccc2c(SCc3ccc(N4CCCC4)cc3)ccnc2c1` [Compound 44, 4-[4-(1-Pyrrolidinyl)benzylthio]-7-methylthioquinoline] and `CSc1ccc2c(SCc3ccc(N4CCCCC4)cc3)ccnc2c1` [Compound 45, 4-(4-Piperidinobenzylthio)-7-methylthioquinoline] are the same in MIC: 0.2 µg/mL (≈ 0.546 µM) for the first, 0.2 µg/mL (≈ 0.526 µM) for the second.

Going from `CN(C)S(=O)(=O)N1CCN(c2ccc(C(=O)CSc3ccnc4ccccc34)cc2)CC1` [Compound 84, 4-[2-(4-(4-Dimethylsulfamoyl-1-piperazinyl)phenyl]-2-oxoethylthio]quinoline] to `CC(C)(C)NC(=O)N1CCN(c2ccc(C(=O)CSc3ccnc4ccccc34)cc2)CC1` [Compound 85, 4-[2-[4-[4-(N-tert-Butylcarbamoyl)-1-piperazinyl]phenyl]-2-oxoethylthio]quinoline], the MIC rises from 0.0016 µg/mL (≈ 0.0034 µM) to 0.0031 µg/mL (≈ 0.0067 µM) (1.9-fold).

Compared with `CC(C)(C)OC(=O)N1CCN(CCc2ccc(C(=O)CSc3ccnc4ccccc34)cc2)CC1` [Compound 50, 4-[2-[4-[2-(4-tert-Butoxycarbonyl-1-piperazinyl)ethyl]-phenyl]-2-oxoethylthio]quinoline], `CC(C)(C)OC(=O)N1CCC(c2ccc(C(=O)CSc3ccnc4ccccc34)cc2)CC1` [Compound 75, 4-[2-[4-(1-tert-Butoxycarbonyl-4-piperidinyl)phenyl]-2-oxoethylthio]quinoline] is 4-fold lower in MIC: 0.05 µg/mL (≈ 0.102 µM) for the first, 0.0125 µg/mL (≈ 0.027 µM) for the second.

Going from `COc1ccc2c(SCc3ccc(NCC(C)C)cc3)ccnc2c1` [Compound 35, 4-(4-Isobutylaminobenzylthio)-7-methoxyquinoline] to `CSc1ccc2c(SCc3ccc(NCC(=O)c4ccc5ccccc5c4)cc3)ccnc2c1` [Compound 38, 4-[4-(2-β-Naphtyl-2-oxoethylamino)benzylthio]-7-methylthioquinoline], the MIC falls from 0.39 µg/mL (≈ 1.11 µM) to 0.2 µg/mL (≈ 0.416 µM) (1.9-fold).

First: COc1cc(C(=O)CSc2ccnc3ccccc23)ccc1OCC1CO1 (stereo not shown) [Compound 57, 4-[2-[3-Methoxy-4-(2,3-epoxypropoxy)phenyl]-2-oxoethylthio]quinoline]
Second: CC(C)(C)CN1CCN(c2ccc(C(=O)CSc3ccnc4ccccc34)cc2Br)CC1 [Compound 66, 4-[2-[3-Bromo-4-(4-neopentyl-1-piperazinyl)phenyl]-2-oxoethylthio]quinoline]
The MIC of the first is 980-fold higher: 0.39 µg/mL (≈ 1.02 µM) for the first, 0.0004 µg/mL (≈ 0.00078 µM) for the second.

Going from `COc1ccc(C=CC(=O)N2CCN(c3ccc(C(=O)CSc4ccnc5ccccc45)cc3)CC2)cc1` [Compound 53, 4-[2-[4-[4-(4-Methoxycinnamoyl)-1-piperazinyl]phenyl]-2-oxoethylthio]quinoline] to `Cl.O=C(CSc1ccnc2ccccc12)c1ccc(N2CCNCC2)cc1` [Compound 51, 4-[2-[4-(1-Piperazinyl)phenyl]-2-oxoethylthio]quinoline hydrochloride], the MIC rises from 0.025 µg/mL (≈ 0.0477 µM) to 0.2 µg/mL (8-fold).

First: c1ccc(COc2ccc(CCSc3ccnc4ccccc34)cc2)cc1 [Compound 25, 4-[2-(4-Benzyloxyphenyl)ethylthio]quinoline]
Second: CC(C)CN(C)CCN(C)c1ccc(CCSc2ccnc3ccccc23)cc1 [Compound 72, 4-[2-[4-[N-[2-(N-Isobutyl-N-methylamino)ethyl]-N-methylamino]phenyl]ethylthio]quinoline]
The MIC of the first is 2-fold higher: 0.1 µg/mL (≈ 0.269 µM) for the first, 0.05 µg/mL (≈ 0.123 µM) for the second.

`CSc1ccc2c(SCc3ccc(N4CCN(C)CC4)cc3)ccnc2c1` [Compound 46, 4-[4-(4-Methyl-1-piperazinyl)benzylthio]-7-methylthioquinoline] and `CSc1ccc2c(SCc3ccc(N4CCOCC4)cc3)ccnc2c1` [Compound 43, 4-(4-Morpholinobenzylthio)-7-methylthioquinoline] are the same in MIC: 0.1 µg/mL (≈ 0.253 µM) for the first, 0.1 µg/mL (≈ 0.261 µM) for the second.

Going from `CC(C)(C)C(=O)Nc1ccc(C(=O)CSc2ccnc3ccccc23)cc1` [Compound 19, 4-[2-(4-Pivaloylaminophenyl)-2-oxoethylthio]quinoline] to `CC(C)(C)OC(=O)N1CCN(c2ccc(C(=O)CSc3ccnc4ccccc34)cc2Br)CC1` [Compound 14, 4-[2-[3-Bromo-4-(4-tert-butoxycarbonyl-1-piperazinyl)-phenyl]-2-oxoethylthio]quinoline], the MIC falls from 0.1 µg/mL (≈ 0.264 µM) to 0.0016 µg/mL (≈ 0.00295 µM) (62-fold).

Going from `CC(C)(C)OC(=O)N1CCN(c2ccc(C(O)CSc3ccnc4ccccc34)cc2)CC1` (stereo not shown) [Compound 87, 4-[2-[4-(4-tert-Butoxycarbonyl-1-piperazinyl)phenyl]-2-hydroxyethylthio]quinoline] to `CSc1ccc2c(SC(C)c3ccc(N(C)C)cc3)ccnc2c1` (stereo not shown) [Compound 33, 4-[1-(4-Dimethylaminophenyl)ethylthio]-7-methylthio-quinoline], the MIC rises from 0.0008 µg/mL (≈ 0.00172 µM) to 0.2 µg/mL (≈ 0.564 µM) (250-fold).

Source: patent US6057447A, “Quinoline sulfide derivatives” (Zenyaku Kogyo Kabushiki Kaisha, priority 1996, dated 2000)
